The source of these data is US20230129258A1, “HETEROTANDEM BICYCLIC PEPTIDE COMPLEXES” (BicycleTx Limited, priority 2019, published 2023).

The target of data set [1] is CD137 (Homo sapiens, UniProt Q07011). Description: CD137 reporter assay (Promega CD137 luciferase reporter, Jurkat cells) in co-culture with Nectin-4-expressing tumor cells. Format: cell-based. On the set-up: host or cells: Jurkat reporter cells. In general terms: Reporter assays use an easily measured gene product as a stand-in for the process of interest.
Data set [2] can be described thus: Pharmacokinetics in SD rats. It is filed as in vivo. The conditions noted are these: rat, in vivo, IV Inf (15 minutes). The method, then:
Male SD Rats were dosed with each heterotandem Bicycle peptide complex formulated in 25 mM Histidine HCl, 10% sucrose pH 7 by IV bolus or IV infusion (15 minutes). Serial bleeding (about 80 μL blood/time point) was performed via submandibular or saphenous vein at each time point. All blood samples were immediately transferred into prechilled microcentrifuge tubes containing 2 μL K2-EDTA (0.5M) as anti-coagulant and placed on wet ice. Blood samples were immediately processed for plasma by centrifugation at approximately 4° C., 3000 g. The precipitant including internal standard was immediately added into the plasma, mixed well and centrifuged at 12,000 rpm, 4° C. for 10 minutes. The supernatant was transferred into pre-labeled polypropylene microcentrifuge tubes, and then quick-frozen over dry ice. The samples were stored at […] or below as needed until analysis. 7.5 μL of the supernatant samples were directly injected for LC-MS/MS analysis using an Orbitrap Q Exactive in positive ion mode to determine the concentrations of analyte. Plasma concentration versus time data were analyzed by non-compartmental approaches using the Phoenix WinNonlin 6.3 software program. C0, CI, Vdss, T½, AUC(0-last), AUC(0-inf), MRT(0-last), MRT(0-inf) and graphs of plasma concentration versus time profile were reported.

[3] abbreviates: EC50 (nM), co-culture with HT1376, Table 2A.
Where [4] appears, read: co-culture with HT1376, Table 2A.

Like-named read-outs stand apart in the source and are kept apart here. Starred links: 1 amine or outer side, 2 acyl side, 3 side chain; linkers in the order of their positions; H or OH if unused. Positions of bridges follow the written chain, without caps; N, C: chain ends. Non-standard residues stand in square brackets, D forms with d. Chains are numbered I, II in the order given. X1 = O=C(CCOCCOCCOCCN(CCOCCOCCOCCn1cc(CCC(=O)[*:2])nn1)CCOCCOCCOCCn1cc(CCC(=O)[*:3])nn1)[*:1]; TATA = O=C(CC[*:1])N1CN(C(=O)CC[*:2])CN(C(=O)CC[*:3])C1; Hyp = O=C(O)[C@@H]1C[C@@H](O)CN1; hArg = N=C(N)NCCCC[C@H](N)C(=O)O; tBuAla = CC(C)(C)C[C@H](N)C(=O)O; Nle = CCCC[C@H](N)C(=O)O

Broadly, the EC50 is the concentration needed to bring the measured effect to its halfway point.

Chain of CD137 (Q07011 24-255): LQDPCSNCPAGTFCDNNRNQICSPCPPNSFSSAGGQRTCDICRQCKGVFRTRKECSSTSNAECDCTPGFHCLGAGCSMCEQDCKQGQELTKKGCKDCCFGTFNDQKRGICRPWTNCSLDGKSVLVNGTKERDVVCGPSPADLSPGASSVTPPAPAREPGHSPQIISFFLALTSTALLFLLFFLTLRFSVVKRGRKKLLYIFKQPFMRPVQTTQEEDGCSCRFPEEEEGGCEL

`CCCC[C@@H]1NC(=O)[C@H](Cc2ccc(O)cc2)NC(=O)[C@@H]2CCCN2C(=O)[C@H](CC(=O)O)NC(=O)[C@H](C)NC(=O)[C@H](Cc2ccccc2)NC(=O)[C@@H]2CSCCC(=O)N3CN(CN(C3)C(=O)CCSC[C@@H](C(=O)N[C@@H](C)C(N)=O)NC1=O)C(=O)CCSC[C@H](NC(C)=O)C(=O)N[C@@H](CC(C)(C)C)C(=O)N1CCC[C@H]1C(=O)N[C@@H](CCC(=O)O)C(=O)N[C@H](CCCCNC(=O)CCc1cn(CCOCCOCCOCCOCCOCCOCCOCCOCCOCCOCCNC(=O)c3cc(C(=O)NCCOCCOCCOCCOCCOCCOCCOCCOCCOCCOCCn4cc(CCC(=O)NCCCC[C@H]5NC(=O)[C@H](CCC(=O)O)NC(=O)[C@@H]6CCCN6C(=O)[C@H](CC(C)(C)C)NC(=O)[C@@H](NC(C)=O)CSCCC(=O)N6CN7CN(C6)C(=O)CCSC[C@H](NC(=O)[C@H](Cc6ccc(O)cc6)NC(=O)[C@@H]6CCCN6C5=O)C(=O)N[C@@H](Cc5ccccc5)C(=O)N[C@@H](C)C(=O)N[C@@H](CC(=O)O)C(=O)N5CCC[C@H]5C(=O)N[C@@H](Cc5ccc(O)cc5)C(=O)N[C@@H](CCCC)C(=O)N[C@H](C(=O)N[C@@H](C)C(N)=O)CSCCC7=O)nn4)cc(C(=O)NCCOCCOCCOCCOCCOCCOCCOCCOCCOCCOCCn4cc(CCC(=O)N[C@H]5CSCCC(=O)N6CN7CN(C6)C(=O)CCSC[C@H](NC(=O)[C@@H](CC(=O)O)NC(=O)[C@H](Cc6cccc8ccccc68)NC(=O)[C@@H]6CCCN6C5=O)C(=O)N[C@@H](CCSC)C(=O)N[C@@H](CCCCNC(=N)N)C(=O)N[C@@H](CC(=O)O)C(=O)N[C@@H](Cc5c[nH]c6ccccc56)C(=O)N[C@@H](CO)C(=O)N[C@@H]([C@@H](C)O)C(=O)N5CCC[C@H]5C(=O)N5C[C@H](O)C[C@H]5C(=O)N[C@@H](Cc5c[nH]c6ccccc56)C(=O)N[C@H](C(N)=O)CSCCC7=O)nn4)c3)nn1)C(=O)N1CCC[C@H]1C(=O)N[C@@H](Cc1ccc(O)cc1)C(=O)N2` [BCY10918]: the response in data set [1] (setting [3]) was half-maximal at 0.16 nM (EC50).
As to `CCCC[C@@H]1NC(=O)[C@H](Cc2ccc(O)cc2)NC(=O)[C@@H]2CCCN2C(=O)[C@H](CC(=O)O)NC(=O)[C@H](C)NC(=O)[C@H](Cc2ccccc2)NC(=O)[C@@H]2CSCCC(=O)N3CN(CN(C3)C(=O)CCSC[C@@H](C(=O)N[C@@H](CNC(=O)CCc3cn(CCOCCOCCOCCOCCOCCOCCOCCOCCOCCOCCNC(=O)c4cc(C(=O)NCCOCCOCCOCCOCCOCCOCCOCCOCCOCCOCCn5cc(CCC(=O)NC[C@H](NC(=O)[C@@H]6CSCCC(=O)N7CN8CN(C7)C(=O)CCSC[C@H](NC(=O)[C@H](Cc7ccc(O)cc7)NC(=O)[C@@H]7CCCN7C(=O)[C@@H](C)NC(=O)[C@H](CCC(=O)O)NC(=O)[C@@H]7CCCN7C(=O)[C@H](CC(C)(C)C)NC(=O)[C@@H](NC(C)=O)CSCCC8=O)C(=O)N[C@@H](Cc7ccccc7)C(=O)N[C@@H](C)C(=O)N[C@@H](CC(=O)O)C(=O)N7CCC[C@H]7C(=O)N[C@@H](Cc7ccc(O)cc7)C(=O)N[C@@H](CCCC)C(=O)N6)C(N)=O)nn5)cc(C(=O)NCCOCCOCCOCCOCCOCCOCCOCCOCCOCCOCCn5cc(CCC(=O)N[C@H]6CSCCC(=O)N7CN8CN(C7)C(=O)CCSC[C@H](NC(=O)[C@@H](CC(=O)O)NC(=O)[C@H](Cc7cccc9ccccc79)NC(=O)[C@@H]7CCCN7C6=O)C(=O)N[C@@H](CCSC)C(=O)N[C@@H](CCCCNC(=N)N)C(=O)N[C@@H](CC(=O)O)C(=O)N[C@@H](Cc6c[nH]c7ccccc67)C(=O)N[C@@H](CO)C(=O)N[C@@H]([C@@H](C)O)C(=O)N6CCC[C@H]6C(=O)N6C[C@H](O)C[C@H]6C(=O)N[C@@H](Cc6c[nH]c7ccccc67)C(=O)N[C@H](C(N)=O)CSCCC8=O)nn5)c4)nn3)C(N)=O)NC1=O)C(=O)CCSC[C@H](NC(C)=O)C(=O)N[C@@H](CC(C)(C)C)C(=O)N1CCC[C@H]1C(=O)N[C@@H](CCC(=O)O)C(=O)N[C@H](C)C(=O)N1CCC[C@H]1C(=O)N[C@@H](Cc1ccc(O)cc1)C(=O)N2` [BCY10919], the EC50 in data set [1] (setting [3]) turned out to be 0.19 nM. In addition, the Emax in data set [1] (setting [4]) was 62 fold induction over background.
For `CCCC[C@@H]1NC(=O)[C@H](Cc2ccc(O)cc2)NC(=O)[C@@H]2CCCN2C(=O)[C@H](CC(=O)O)NC(=O)[C@H](C)NC(=O)[C@H](Cc2ccccc2)NC(=O)[C@@H]2CSCCC(=O)N3CN(CN(C3)C(=O)CCSC[C@@H](C(=O)N[C@@H](C)C(N)=O)NC1=O)C(=O)CCSC[C@H](NC(C)=O)C(=O)N[C@@H](CC(C)(C)C)C(=O)N1CCC[C@H]1C(=O)N[C@@H](CCC(=O)O)C(=O)N[C@H](CCCCNC(=O)CCc1cn(CCOCCOCCOCCOCCOCCOCCOCCOCCOCCOCCNC(=O)CCOCC(COCCC(=O)NCCOCCOCCOCCOCCOCCOCCOCCOCCOCCOCCn3cc(CCC(=O)NCCCC[C@H]4NC(=O)[C@H](CCC(=O)O)NC(=O)[C@@H]5CCCN5C(=O)[C@H](CC(C)(C)C)NC(=O)[C@@H](NC(C)=O)CSCCC(=O)N5CN6CN(C5)C(=O)CCSC[C@H](NC(=O)[C@H](Cc5ccc(O)cc5)NC(=O)[C@@H]5CCCN5C4=O)C(=O)N[C@@H](Cc4ccccc4)C(=O)N[C@@H](C)C(=O)N[C@@H](CC(=O)O)C(=O)N4CCC[C@H]4C(=O)N[C@@H](Cc4ccc(O)cc4)C(=O)N[C@@H](CCCC)C(=O)N[C@H](C(=O)N[C@@H](C)C(N)=O)CSCCC6=O)nn3)(COCCC(=O)NCCOCCOCCOCCOCCOCCOCCOCCOCCOCCOCCn3cc(CCC(=O)NCCCC[C@H]4NC(=O)[C@H](CCC(=O)O)NC(=O)[C@@H]5CCCN5C(=O)[C@H](CC(C)(C)C)NC(=O)[C@@H](NC(C)=O)CSCCC(=O)N5CN6CN(C5)C(=O)CCSC[C@H](NC(=O)[C@H](Cc5ccc(O)cc5)NC(=O)[C@@H]5CCCN5C4=O)C(=O)N[C@@H](Cc4ccccc4)C(=O)N[C@@H](C)C(=O)N[C@@H](CC(=O)O)C(=O)N4CCC[C@H]4C(=O)N[C@@H](Cc4ccc(O)cc4)C(=O)N[C@@H](CCCC)C(=O)N[C@H](C(=O)N[C@@H](C)C(N)=O)CSCCC6=O)nn3)COCCC(=O)NCCOCCOCCOCCOCCOCCOCCOCCOCCOCCOCCn3cc(CCC(=O)NCCC(=O)N[C@H]4CSCCC(=O)N5CN6CN(C5)C(=O)CCSC[C@H](NC(=O)[C@@H](CC(=O)O)NC(=O)[C@H](Cc5cccc7ccccc57)NC(=O)[C@@H]5CCCN5C4=O)C(=O)N[C@@H](CCSC)C(=O)N[C@@H](CCCCNC(=N)N)C(=O)N[C@@H](CC(=O)O)C(=O)N[C@@H](Cc4c[nH]c5ccccc45)C(=O)N[C@@H](CO)C(=O)N[C@@H]([C@@H](C)O)C(=O)N4CCC[C@H]4C(=O)N4C[C@H](O)C[C@H]4C(=O)N[C@@H](Cc4c[nH]c5ccccc45)C(=O)N[C@H](C(N)=O)CSCCC6=O)nn3)nn1)C(=O)N1CCC[C@H]1C(=O)N[C@@H](Cc1ccc(O)cc1)C(=O)N2` [BCY11022], a half-maximal response in data set [1] (EC50) required 0.2 nM. For the same compound, in data set [1] (setting [4]), the Emax is reported as 66 fold induction over background.
In turn, `CCCC[C@@H]1NC(=O)[C@H](Cc2ccc(O)cc2)NC(=O)[C@@H]2CCCN2C(=O)[C@H](CC(=O)O)NC(=O)[C@H](C)NC(=O)[C@H](Cc2ccccc2)NC(=O)[C@@H]2CSCCC(=O)N3CN(CN(C3)C(=O)CCSC[C@@H](C(=O)N[C@@H](C)C(N)=O)NC1=O)C(=O)CCSC[C@H](NC(C)=O)C(=O)N[C@@H](CC(C)(C)C)C(=O)N1CCC[C@H]1C(=O)N[C@@H](CCC(=O)O)C(=O)N[C@H](CCCCNC(=O)CCc1cn(CCOCCOCCOCCOCCOCCOCCOCCOCCOCCOCCNC(=O)CCOCCN(CCOCCC(=O)NCCOCCOCCOCCOCCOCCOCCOCCOCCOCCOCCn3cc(CCC(=O)NCCCC[C@H]4NC(=O)[C@H](CCC(=O)O)NC(=O)[C@@H]5CCCN5C(=O)[C@H](CC(C)(C)C)NC(=O)[C@@H](NC(C)=O)CSCCC(=O)N5CN6CN(C5)C(=O)CCSC[C@H](NC(=O)[C@H](Cc5ccc(O)cc5)NC(=O)[C@@H]5CCCN5C4=O)C(=O)N[C@@H](Cc4ccccc4)C(=O)N[C@@H](C)C(=O)N[C@@H](CC(=O)O)C(=O)N4CCC[C@H]4C(=O)N[C@@H](Cc4ccc(O)cc4)C(=O)N[C@@H](CCCC)C(=O)N[C@H](C(=O)N[C@@H](C)C(N)=O)CSCCC6=O)nn3)CCOCCC(=O)NCCOCCOCCOCCOCCOCCOCCOCCOCCOCCOCCn3cc(CCC(=O)N[C@H]4CSCCC(=O)N5CN6CN(C5)C(=O)CCSC[C@H](NC(=O)[C@@H](CC(=O)O)NC(=O)[C@H](Cc5cccc7ccccc57)NC(=O)[C@@H]5CCCN5C4=O)C(=O)N[C@@H](CCSC)C(=O)N[C@@H](CCCCNC(=N)N)C(=O)N[C@@H](CC(=O)O)C(=O)N[C@@H](Cc4c[nH]c5ccccc45)C(=O)N[C@@H](CO)C(=O)N[C@@H]([C@@H](C)O)C(=O)N4CCC[C@H]4C(=O)N4C[C@H](O)C[C@H]4C(=O)N[C@@H](Cc4c[nH]c5ccccc45)C(=O)N[C@H](C(N)=O)CSCCC6=O)nn3)nn1)C(=O)N1CCC[C@H]1C(=O)N[C@@H](Cc1ccc(O)cc1)C(=O)N2` [BCY11027] gave an EC50 in data set [1] (setting [3]) of 0.18 nM.
Regarding “I: A[hArg]DC[Hyp]LVNPLCLHP[dD]W[hArg]C-NH2 / II: Ac-C[tBuAla]PE[dK]PYCFADPY[Nle]C-NH2 / III: Ac-C[tBuAla]PE[dK]PYCFADPY[Nle]C-NH2 (linker I:4-I:11-I:18, II:1-II:8-II:15, III:1-III:8-III:15 via TATA; linker I:N-II:5-III:5 via X1) [BCY12724]”, the half-life in data set [2] (iv, read-out: T1/2 (converted)) is 1.5 h. The clearance in data set [2] (read-out: Clp) is 13 mL/min/kg. Also, the Vd in data set [2] (read-out: Vdss) turned out to be 1.2 L/kg.
